For 29 molecules, IC50 results are on record in BindingDB's records for doi:10.1021/jm950589q (Ibm Thomas J. Watson Research Center, 1996).

The experiment is described as follows: Inhibitory concentration against HIV-1 replication by interfering with virus reverse transcriptase.
Consider `CC(C)=CCN1Cc2cc(Cl)cc3[nH]c(=S)n(c23)C[C@@H]1C`, for which it took 43 nM to reach half-maximal inhibition (IC50).

`C=C(C)CN1Cc2cccc3[nH]c(=S)n(c23)CC1C` (centres undefined): the IC50 – broadly, the concentration at which inhibition is half-maximal – was 26 nM. `CC1Cn2c(=S)[nH]c3cccc(c32)CN1CC1CC1` (centres undefined) showed an IC50 of 60 nM. The molecule `CC(C)=CCN1Cc2cc(Cl)cc3[nH]c(=O)n(c23)CC1C` (centres undefined) displayed an IC50 of 180 nM.

Turning to `CC(C)=CCN1Cc2cccc3[nH]c(=O)n(c23)CC1C` (centres undefined), the IC50 came to 3320 nM. In turn, `C=C(C)CN1Cc2cccc3[nH]c(=O)n(c23)CC1C` (centres undefined) came in with an IC50 of 34700 nM. The same measure for `CC(C)=CCN1CCn2c(=O)[nH]c3cc(Cl)cc(c32)C1C` (centres undefined) [4-Chloro-6-methyl-7-(3-methyl-but-2-enyl)-6,7,8,9-tetrahydro-2H-2,7,9a-triaza-benzo[cd]azulen-1-one]: 160 nM; for `CC(C)=CCN1CCn2c(=S)[nH]c3cc(Cl)cc(c32)C1C` (centres undefined) [4-Chloro-6-methyl-7-(3-methyl-but-2-enyl)-6,7,8,9-tetrahydro-2H-2,7,9a-triaza-benzo[cd]azulene-1-thione]: 23 nM; for `CC(C)=CCN1CCn2c(=S)[nH]c3cc(Cl)cc(c32)C1` [4-Chloro-7-(3-methyl-but-2-enyl)-6,7,8,9-tetrahydro-2H-2,7,9a-triaza-benzo[cd]azulene-1-thione]: 160 nM. The same measure for `CC1Cn2c(=S)[nH]c3cc(Cl)cc(c32)CN1CC1CC1` (centres undefined) [4-Chloro-7-cyclopropylmethyl-8-methyl-6,7,8,9-tetrahydro-2H-2,7,9a-triaza-benzo[cd]azulene-1-thione]: 34 nM.

Molecule `C=C(C)CN1Cc2cc(Cl)cc3[nH]c(=S)n(c23)C(C)C1` (centres undefined) [4-Chloro-9-methyl-7-(2-methyl-allyl)-6,7,8,9-tetrahydro-2H-2,7,9a-triaza-benzo[cd]azulene-1-thione] returned an IC50 of 670 nM.

Regarding `CC(C)=CCN1CCn2c(=O)[nH]c3ccc(Cl)c(c32)C1C` (centres undefined) [5-Chloro-6-methyl-7-(3-methyl-but-2-enyl)-6,7,8,9-tetrahydro-2H-2,7,9a-triaza-benzo[cd]azulen-1-one], the IC50 stood at 145 nM.

The molecule `CC(C)=CCN1CCn2c(=S)[nH]c3ccc(Cl)c(c32)C1C` (centres undefined) [5-Chloro-6-methyl-7-(3-methyl-but-2-enyl)-6,7,8,9-tetrahydro-2H-2,7,9a-triaza-benzo[cd]azulene-1-thione] returned an IC50 of 12 nM.

`CC(C)=CCN1CCn2c(=S)[nH]c3ccc(Cl)c(c32)C1` [5-Chloro-7-(3-methyl-but-2-enyl)-6,7,8,9-tetrahydro-2H-2,7,9a-triaza-benzo[cd]azulene-1-thione] returned an IC50 of 46 nM.

Molecule `CC(C)=CCN1Cc2c(Cl)ccc3[nH]c(=S)n(c23)C[C@@H]1C` [5-Chloro-8-methyl-7-(3-methyl-but-2-enyl)-6,7,8,9-tetrahydro-2H-2,7,9a-triaza-benzo[cd]azulene-1-thione] showed an IC50 of 5 nM. The value for `CC(C)=CCN1CC(C)n2c(=S)[nH]c3cccc(c32)C1C` (centres undefined) [6,9-Dimethyl-7-(3-methyl-but-2-enyl)-6,7,8,9-tetrahydro-2H-2,7,9a-triaza-benzo[cd]azulene-1-thione] was 25800 nM. Molecule `CC(C)=CCN1CCn2c(=O)[nH]c3cccc(c32)C1C` (centres undefined) [6-Methyl-7-(3-methyl-but-2-enyl)-6,7,8,9-tetrahydro-2H-2,7,9a-triaza-benzo[cd]azulen-1-one] displayed an IC50 of 12100 nM.

Take `CC(C)=CCN1CCn2c(=S)[nH]c3cccc(c32)C1C` (centres undefined) [6-Methyl-7-(3-methyl-but-2-enyl)-6,7,8,9-tetrahydro-2H-2,7,9a-triaza-benzo[cd]azulene-1-thione]: the IC50 was found to be 78 nM. The molecule `C=C(C)CN1Cc2cccc3[nH]c(=O)n(c23)C(CCC)C1` (centres undefined) [7-(2-Methyl-allyl)-9-propyl-6,7,8,9-tetrahydro-2H-2,7,9a-triaza-benzo[cd]azulen-1-one] came in with an IC50 of 48100 nM. The molecule `CC1C(C)n2c(=S)[nH]c3cccc(c32)CN1CC1CC1` (centres undefined) [7-Cyclopropylmethyl-8,9-dimethyl-6,7,8,9-tetrahydro-2H-2,7,9a-triaza-benzo[cd]azulene-1-thione] had an IC50 of 13400 nM. On to `CC(C)=CCN1Cc2cccc3[nH]c(=O)n(c23)C(C)C1C` (centres undefined) [8,9-Dimethyl-7-(3-methyl-but-2-enyl)-6,7,8,9-tetrahydro-2H-2,7,9a-triaza-benzo[cd]azulen-1-one], for which the IC50 came to 56700 nM. As for `CC(C)=CCN1Cc2cccc3[nH]c(=S)n(c23)C(C)C1C` (centres undefined) [8,9-Dimethyl-7-(3-methyl-but-2-enyl)-6,7,8,9-tetrahydro-2H-2,7,9a-triaza-benzo[cd]azulene-1-thione], the IC50 stood at 2220 nM.

The molecule `C=C(C)CN1Cc2cccc3[nH]c(=O)n(c23)C(C(C)C)C1` (centres undefined) [9-Isopropyl-7-(2-methyl-allyl)-6,7,8,9-tetrahydro-2H-2,7,9a-triaza-benzo[cd]azulen-1-one] gave an IC50 of 12600 nM.

The molecule `C=C(C)CN1Cc2cccc3[nH]c(=O)n(c23)C(C)C1` (centres undefined) [9-Methyl-7-(2-methyl-allyl)-6,7,8,9-tetrahydro-2H-2,7,9a-triaza-benzo[cd]azulen-1-one] registered an IC50 of 32100 nM. The same measure for `CC(C)=CCN1[C@H](C)Cn2c(=S)[nH]c3cccc(c32)[C@H]1C` [(6R,8R)-6,8-Dimethyl-7-(3-methyl-but-2-enyl)-6,7,8,9-tetrahydro-2H-2,7,9a-triaza-benzo[cd]azulene-1-thione]: 42 nM. The value for `CC(C)=CCN1[C@H](C)Cn2c(=O)[nH]c3cc(Cl)cc(c32)[C@@H]1C` [(6S,8R)-4-Chloro-6,8-dimethyl-7-(3-methyl-but-2-enyl)-6,7,8,9-tetrahydro-2H-2,7,9a-triaza-benzo[cd]azulen-1-one] was 230 nM; that for `CC(C)=CCN1[C@H](C)Cn2c(=S)[nH]c3cc(Cl)cc(c32)[C@@H]1C` [(6S,8R)-4-Chloro-6,8-dimethyl-7-(3-methyl-but-2-enyl)-6,7,8,9-tetrahydro-2H-2,7,9a-triaza-benzo[cd]azulene-1-thione] was 480 nM; that for `CC(C)=CCN1[C@H](C)Cn2c(=S)[nH]c3cccc(c32)[C@@H]1C` [(6S,8R)-6,8-Dimethyl-7-(3-methyl-but-2-enyl)-6,7,8,9-tetrahydro-2H-2,7,9a-triaza-benzo[cd]azulene-1-thione] was 1150 nM. With `CC(C)=CCN1Cc2cccc3[nH]c(=S)n(c23)C[C@@H]1C` [(11S)-11-methyl-10-(3-methylbut-2-en-1-yl)-1,3,10-triazatricyclo[6.4.1.0^{4,13}]trideca-4(13),5,7-triene-2-thione], 97 nM corresponded to half-maximal inhibition (IC50).
